From US20170042991A1, “COMPOSITIONS COMPRISING GLUTEN PEPTIDES AND USES THEREOF” (ImmusanT, Inc., priority 2014, published 2017)
Non-standard residues stand in square brackets, D forms with d. pGlu = O=C1CC[C@@H](C(=O)O)N1

Tests used:
Type in all cases: cell-based, human
[1] = test system: whole blood; assay: 96-well plate whole blood multiplex cytokine release, IP-10 (MAGPIX bead assay, Example 2); conditions: for IP-10 WB MAGPIX % max Mean: Day-6, n = 10; for Percent of maximal response, IP-10: after oral gluten challenge
[2] = test system: PBMC; assay: Overnight IFNγ ELISpot assay with fresh PBMC (Example 2); conditions: Day-6, n = 5
Procedure: Ten HLA-DQ2.5+ adults with celiac disease diagnosed according to the National Institutes of Health Consensus Statement 2004 were enrolled (Table 7).^22 Subjects were required to have followed gluten-free diet for at least one year and without known gluten exposures within the previous two-months. […] Full inclusion and exclusion criteria are described in Table 8. Each of 3 consecutive days subjects consumed 3 cookies that were prepared from approximately 4.5 g wheat gluten, 3 g barley flour protein, and 1.5 g rye flour protein. Blood was collected before and six days after commencing the oral challenge. Blood was collected using a 21G butterfly needle directly into 10 mL lithium heparin tubes (BD Vacutainer® Heparin tube #367880) and QuantiFERON® NIL (0591-0205, Cellestis Ltd., Chadstone VIC 3148 Australia) and QuantiFERON® MITOGEN (0593-0201, Cellestis Ltd.).
Overnight IFNγ ELISpot assays (Human IFN-γ ELISpotPRO kit, transparent, ALP; Mabtech AB, #3420-2APT-10) were performed using PBMC freshly separated from heparinized blood diluted 1:1 in PBS with 2% fetal bovine serum (Stemcell Technologies #07905; Vancouver, BC, V5Z 1B3, Canada) overlaid on density gradient medium (Ficoll-Paque™ PLUS; GE Healthcare Lice Sciences #:17-1440-02) in SepMate™-50 tubes (Stemcell Technologies #15460). PBMC (8 million/mL) were resuspended in serum-free medium with gentamicin and phenol red (X-VIVO™15; Lonza, Walkersville Mass. 21793). PBMC (0.4 million/50 μL/well) and incubated with 50 μL 80% X-vivol5, 0.2% DMSO and 20% PBS in three triplicate wells (“medium only”), or with 50 μL PHA-L 20 μg/ml or peptide at 2× final concentration in 80% X-vivol5, 0.2% DMSO and 20% PBS. Peptide solutions to be added to individual ELISpot wells were prepared in 96-well U-bottom plates (60 μL/well) that were then sealed with adhesive ELISA plate cover slips before replacing the plastic lid and being frozen at −80° C. 96-well plates containing peptide solutions were thawed at room temperature for 10 min while being centrifuged at 300 g immediately prior to being added to ELISpot wells. Peptide pools and mitogen were assessed in triplicate wells, and individual peptides were assessed in duplicate wells. X-VIVO™15 (50 μL) was incubated with 80% X-vivol5, 0.2% DMSO and 20% PBS (50 μL) in triplicate wells (“no PBMC” control). A Zeiss automated ELISpot counter was used to determine spot forming units (SFU) per well (Zellnet Inc., Fort Lee, N.J. 07024). Laboratory staff were unaware of the arrangement of peptide solutions in ELISpot wells during assay setup and plate counting.

[3] = test system: gluten-reactive T cells; assay: Cytokine release assays taken together (IFNγ ELISpot, whole blood IFNγ and IP-10 release); conditions: three cytokine release assays
Procedure: Gluten peptide solutions for addition to whole blood were arranged according to standardized templates in sterile 96-well U-bottom plates (30 μL/well). Plates were sealed with adhesive ELISA plate cover slips before the plastic lid was replaced and being frozen at −80° C. Whole blood assay (WBA) “medium” (1% DMSO in 90% PBS and 9% normal saline), mitogen (PHA-L, Sigma-Aldrich #L2769; St Louis Mo.) 100 μg/ml in WBA medium, and CEF diluted to 10 μg/ml in PBS with a final concentration of 1% DMSO were frozen separately in sterile cryovials. 96-well plates and cryovials with frozen incubation solutions were shipped on dry ice to the clinical site where blood was collected and incubations performed. Solutions were thawed at room temperature for 10 min just before being added to whole blood. 96-well plates were thawed while being centrifuged at 300 g to avoid surface condensation. A multi-channel pipette was used to efficiently transfer 25 μL of peptide solutions from the original 96-well plate to corresponding wells in a fresh sterile 96-well U-bottom plate. Once incubation solutions had been added, 225 μL of whole blood was added to each well and the plate transferred to incubate for 24 h at 37° C. 5% CO2. […] Individual peptides were incubated at a final assay concentration of 5 μM. Final concentrations of individual peptides assessed in P3 was 0.05-50 μg/mL, and in P14 and P13 pools 0.025-25 μM. The P71 pool was tested at between 0.005-10 μg/mL, the highest tested concentration being the maximal possible not exceeding 0.1% DMSO. Peptide pools, mitogen, and medium only were assessed in triplicate wells, and on Day-6 individual peptides were assessed in duplicate wells. Incubations were terminated after 24 h, and 96-well plates centrifuged at 300 g for 10 min. A total of approximately 90 to 120 μL of plasma was removed from each well taking care to avoid red cell contamination, and transferred into corresponding wells of two further 96-well plates (one with 30 μL/well and the residual in the second plate). Plasmas were frozen at −80° C. and later shipped on dry ice to the central lab where IP-10 and IFNγ multiplex bead assays were performed according to manufacturer's instructions using 25 μL plasma per well (Milliplex® MAP Human Cytokine/Chemokine Magnetic Bead Panel #HCYTOMAG-60k-02; EMD Millipore Corp., Billerica, Mass. 01821) and analysed with the Luminex® MAGPIX® System xPONENT® software (Luminex Corporation, Austin Tex. 78727). Plasma cytokine levels for each assay condition were expressed as the mean analyte concentration of each of the three replicate incubations. Laboratory staff were unaware of the arrangement of peptide solutions incubated with during assay setup and plate counting. […]

[4] = test system: whole blood; assay: 96-well plate whole blood multiplex cytokine release, IFNγ (MAGPIX bead assay, Example 2); conditions: Day-6, n = 8
[5] = test system: PBMC; assay: IFN-gamma ELISpot of PBMC, Day-6 after gluten challenge (Example 1); conditions: DQ2.5+ CD
[6] = Peptide 2 re-synthesised by Pepscan, 10 μg/mL (5.45 μM)
[7] = individual peptides 5 μM, Peptide 2 = CSBio batch

Substance: (pE)QPFPQPEQPFPWQP-amide ([pGlu]QPFPQPEQPFPWQP-NH2; SMILES NC(=O)CC[C@H](NC(=O)[C@H](Cc1c[nH]c2ccccc12)NC(=O)[C@@H]1CCCN1C(=O)[C@H](Cc1ccccc1)NC(=O)[C@@H]1CCCN1C(=O)[C@H](CCC(N)=O)NC(=O)[C@H](CCC(=O)O)NC(=O)[C@@H]1CCCN1C(=O)[C@H](CCC(N)=O)NC(=O)[C@@H]1CCCN1C(=O)[C@H](Cc1ccccc1)NC(=O)[C@@H]1CCCN1C(=O)[C@H](CCC(N)=O)NC(=O)[C@@H]1CCC(=O)N1)C(=O)N1CCC[C@H]1C(N)=O) [Peptide 2, CSBio and Pepscan batches tested separately]
- IP-10 WB MAGPIX % max Mean [1, 6]: 49 % max
- Percent of maximal response, IP-10 ([1]; Subject 3, Max. 9492 pg/mL): ≥ 100 % of max
- Percent of maximal response, IP-10 ([1]; Subject 4, Max. 9463 pg/mL): ≥ 100 % of max
- IP-10 WB MAGPIX % max Mean [1, 7]: 43 % max
- IFNγ ELISpot % max Mean [2, 6]: 25 % max
- IFNγ ELISpot % max Mean [2, 7]: 19 % max
- activity as a fraction of that of Peptide 14 [3]: one-half to one-fifth
- IFNγ WB MAGPIX % max Mean [4, 6]: 27 % max
- IFNγ WB MAGPIX % max Mean [4, 7]: 23 % max
- Peptide-specific IFN-gamma ELISpot response ([5]; Subject 1, 10 ug/ml): 0 spot forming units per 0.8 million PBMC
- Peptide-specific IFN-gamma ELISpot response ([5]; Subject 2, 10 ug/ml): 1 spot forming units per 0.8 million PBMC
- Peptide-specific IFN-gamma ELISpot response ([5]; Subject 3, 10 ug/ml): 2 spot forming units per 0.8 million PBMC
- Peptide-specific IFN-gamma ELISpot response ([5]; Subject 4, 10 ug/ml): 17 spot forming units per 0.8 million PBMC
- Peptide-specific IFN-gamma ELISpot response ([5]; Subject 5, 10 ug/ml): 0 spot forming units per 0.8 million PBMC
- Peptide-specific IFN-gamma ELISpot response ([5]; Subject 6, 10 ug/ml): 2 spot forming units per 0.8 million PBMC
- Peptide-specific IFN-gamma ELISpot response ([5]; Subject 7, 10 ug/ml): 2 spot forming units per 0.8 million PBMC
- Peptide-specific IFN-gamma ELISpot response ([5]; Subject 8, 10 ug/ml): 4 spot forming units per 0.8 million PBMC
- Peptide-specific IFN-gamma ELISpot response ([5]; Subject 9, 10 ug/ml): 1 spot forming units per 0.8 million PBMC
- Peptide-specific IFN-gamma ELISpot response ([5]; Subject 10, 10 ug/ml): 0 spot forming units per 0.8 million PBMC
